Results: the supplement of paper PMC10307832

How the values were obtained:
Assay in all cases: relative viability (nuclei count vs DMSO), 5 days (fraction); higher = more cells survive
201T = tested on: 201T
How it was run: (§1)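 For relative viability, nuclei counts in treated wells were divided by those in vehicle wells. Lung cancer cell lines had been pin-tool dosed in 1536-well plates the day after seeding and cultured for 5 days, then fixed and stained in one step (final 0.05% Triton X-100, 1% formaldehyde, 1 ug/ml Hoechst) and imaged at 4×. Doses were one drug alone or a fixed anchor-drug dose plus five library-drug doses (not always all listed) in √10 steps, and values are duplicate-plate medians.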

A-427 = tested on: A-427
How it was run: as §1

BEN = tested on: BEN
How it was run: as §1

COR-L23 = tested on: COR-L23
How it was run: as §1

EKVX = tested on: EKVX
How it was run: as §1

HARA = tested on: HARA
How it was run: as §1

HCC-15 = tested on: HCC-15
How it was run: as §1

HCC-44 = tested on: HCC-44
How it was run: as §1

HCC-827 = tested on: HCC-827
How it was run: as §1

NCI-H1437 = tested on: NCI-H1437
How it was run: as §1

NCI-H1650 = tested on: NCI-H1650
How it was run: as §1

NCI-H1666 = tested on: NCI-H1666
How it was run: as §1

NCI-H1792 = tested on: NCI-H1792
How it was run: as §1

NCI-H1975 = tested on: NCI-H1975
How it was run: as §1

NCI-H2342 = tested on: NCI-H2342
How it was run: as §1

NCI-H23 = tested on: NCI-H23
How it was run: as §1

NCI-H358 = tested on: NCI-H358
How it was run: as §1

NCI-H441 = tested on: NCI-H441
How it was run: as §1

NCI-H596 = tested on: NCI-H596
How it was run: as §1

NCI-H650 = tested on: NCI-H650
How it was run: as §1

NCI-H838 = tested on: NCI-H838
How it was run: as §1

SK-MES-1 = tested on: SK-MES-1
How it was run: as §1

SW 900 = tested on: SW 900
How it was run: as §1

SMILES: O=c1cc(N2CCOCC2)oc2c(-c3cccc4c3sc3ccccc34)cccc12 + CCNC(=O)c1noc(-c2cc(C(C)C)c(O)cc2O)c1-c1ccc(CN2CCOCC2)cc1 [Luminespib] (partner 0.01 µM)
- relative viability (201T; first compound 0.01 µM): 0.961
- relative viability (201T; first compound 0.03162 µM): 1.1
- relative viability (201T; first compound 0.1 µM): 1.03
- relative viability (201T; first compound 0.3162 µM): 1.02
- relative viability (201T; first compound 1 µM): 0.996
- relative viability (A-427; first compound 0.01 µM): 0.944
- relative viability (A-427; first compound 0.03162 µM): 0.903
- relative viability (A-427; first compound 0.1 µM): 0.898
- relative viability (A-427; first compound 0.3162 µM): 0.93
- relative viability (A-427; first compound 1 µM): 1.01
- relative viability (BEN; first compound 0.01 µM): 0.298
- relative viability (BEN; first compound 0.03162 µM): 0.359
- relative viability (BEN; first compound 0.1 µM): 0.236
- relative viability (BEN; first compound 0.3162 µM): 0.497
- relative viability (BEN; first compound 1 µM): 0.318
- relative viability (COR-L23; first compound 0.01 µM): 0.763
- relative viability (COR-L23; first compound 0.03162 µM): 0.654
- relative viability (COR-L23; first compound 0.1 µM): 0.724
- relative viability (COR-L23; first compound 0.3162 µM): 0.608
- relative viability (COR-L23; first compound 1 µM): 0.779
- relative viability (EKVX; first compound 0.01 µM): 0.9
- relative viability (EKVX; first compound 0.03162 µM): 0.872
- relative viability (EKVX; first compound 0.1 µM): 0.878
- relative viability (EKVX; first compound 0.3162 µM): 0.917
- relative viability (EKVX; first compound 1 µM): 0.891
- relative viability (HARA; first compound 0.01 µM): 0.682
- relative viability (HARA; first compound 0.03162 µM): 0.679
- relative viability (HARA; first compound 0.1 µM): 0.806
- relative viability (HARA; first compound 0.3162 µM): 0.771
- relative viability (HARA; first compound 1 µM): 0.905
- relative viability (HCC-15; first compound 0.01 µM): 0.301
- relative viability (HCC-15; first compound 0.03162 µM): 0.294
- relative viability (HCC-15; first compound 0.1 µM): 0.604
- relative viability (HCC-15; first compound 0.3162 µM): 0.339
- relative viability (HCC-15; first compound 1 µM): 0.344
- relative viability (HCC-44; first compound 0.01 µM): 1.02
- relative viability (HCC-44; first compound 0.03162 µM): 1.01
- relative viability (HCC-44; first compound 0.1 µM): 1.31
- relative viability (HCC-44; first compound 0.3162 µM): 0.998
- relative viability (HCC-44; first compound 1 µM): 1.11
- relative viability (HCC-827; first compound 0.01 µM): 0.642
- relative viability (HCC-827; first compound 0.03162 µM): 0.541
- relative viability (HCC-827; first compound 0.1 µM): 0.626
- relative viability (HCC-827; first compound 0.3162 µM): 0.629
- relative viability (HCC-827; first compound 1 µM): 0.71
- relative viability (NCI-H1437; first compound 0.01 µM): 0.835
- relative viability (NCI-H1437; first compound 0.03162 µM): 1.03
- relative viability (NCI-H1437; first compound 0.1 µM): 1.1
- relative viability (NCI-H1437; first compound 0.3162 µM): 1.08
- relative viability (NCI-H1437; first compound 1 µM): 1.04
- relative viability (NCI-H1650; first compound 0.01 µM): 0.211
- relative viability (NCI-H1650; first compound 0.03162 µM): 0.169
- relative viability (NCI-H1650; first compound 0.1 µM): 0.196
- relative viability (NCI-H1650; first compound 0.3162 µM): 0.203
- relative viability (NCI-H1650; first compound 1 µM): 0.191
- relative viability (NCI-H1666; first compound 0.01 µM): 0.889
- relative viability (NCI-H1666; first compound 0.03162 µM): 1.01
- relative viability (NCI-H1666; first compound 0.1 µM): 0.995
- relative viability (NCI-H1666; first compound 0.3162 µM): 0.969
- relative viability (NCI-H1666; first compound 1 µM): 0.93
- relative viability (NCI-H1792; first compound 0.01 µM): 0.502
- relative viability (NCI-H1792; first compound 0.03162 µM): 0.359
- relative viability (NCI-H1792; first compound 0.1 µM): 0.576
- relative viability (NCI-H1792; first compound 0.3162 µM): 0.497
- relative viability (NCI-H1792; first compound 1 µM): 0.531
- relative viability (NCI-H1975; first compound 0.01 µM): 0.198
- relative viability (NCI-H1975; first compound 0.03162 µM): 0.242
- relative viability (NCI-H1975; first compound 0.1 µM): 0.202
- relative viability (NCI-H1975; first compound 0.3162 µM): 0.271
- relative viability (NCI-H1975; first compound 1 µM): 0.227
- relative viability (NCI-H2342; first compound 0.01 µM): 0.667
- relative viability (NCI-H2342; first compound 0.03162 µM): 0.58
- relative viability (NCI-H2342; first compound 0.1 µM): 0.696
- relative viability (NCI-H2342; first compound 0.3162 µM): 0.586
- relative viability (NCI-H2342; first compound 1 µM): 0.742
- relative viability (NCI-H23; first compound 0.01 µM): 0.194
- relative viability (NCI-H23; first compound 0.03162 µM): 0.194
- relative viability (NCI-H23; first compound 0.3162 µM): 0.239
- relative viability (NCI-H23; first compound 1 µM): 0.206
- relative viability (NCI-H358; first compound 0.01 µM): 0.235
- relative viability (NCI-H358; first compound 0.03162 µM): 0.397
- relative viability (NCI-H358; first compound 0.1 µM): 0.33
- relative viability (NCI-H358; first compound 0.3162 µM): 0.229
- relative viability (NCI-H358; first compound 1 µM): 0.332
- relative viability (NCI-H441; first compound 0.01 µM): 0.334
- relative viability (NCI-H441; first compound 0.03162 µM): 0.406
- relative viability (NCI-H441; first compound 0.1 µM): 0.357
- relative viability (NCI-H441; first compound 0.3162 µM): 0.417
- relative viability (NCI-H441; first compound 1 µM): 0.454
- relative viability (NCI-H596; first compound 0.01 µM): 1.05
- relative viability (NCI-H596; first compound 0.03162 µM): 0.917
- relative viability (NCI-H596; first compound 0.1 µM): 0.877
- relative viability (NCI-H596; first compound 0.3162 µM): 1.14
- relative viability (NCI-H596; first compound 1 µM): 1.01
- relative viability (NCI-H650; first compound 0.03162 µM): 0.846
- relative viability (NCI-H650; first compound 0.1 µM): 0.638
- relative viability (NCI-H650; first compound 0.3162 µM): 0.917
- relative viability (NCI-H650; first compound 1 µM): 0.813
- relative viability (NCI-H838; first compound 0.01 µM): 0.347
- relative viability (NCI-H838; first compound 0.03162 µM): 0.362
- relative viability (NCI-H838; first compound 0.1 µM): 0.406
- relative viability (NCI-H838; first compound 0.3162 µM): 0.294
- relative viability (NCI-H838; first compound 1 µM): 0.287
- relative viability (SK-MES-1; first compound 0.01 µM): 0.712
- relative viability (SK-MES-1; first compound 0.03162 µM): 0.767
- relative viability (SK-MES-1; first compound 0.1 µM): 0.736
- relative viability (SK-MES-1; first compound 0.3162 µM): 0.661
- relative viability (SK-MES-1; first compound 1 µM): 0.741
- relative viability (SW 900; first compound 0.01 µM): 0.203
- relative viability (SW 900; first compound 0.03162 µM): 0.186
- relative viability (SW 900; first compound 0.1 µM): 0.173
- relative viability (SW 900; first compound 0.3162 µM): 0.196
- relative viability (SW 900; first compound 1 µM): 0.176
